Assay results taken from PubChem BioAssay (NCI).
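Exposure lasted 48 hours, with cells grown in 96-well plates and compounds tested at five concentrations. TGI denotes the concentration required for complete inhibition of growth.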

Key:
Test in all cases: NCI-60 cell line screen, 48 h
IGROV1 ovarian = test system: IGROV1 ovarian
LOX IMVI melanoma = test system: LOX IMVI melanoma
OVCAR-8 ovarian = test system: OVCAR-8 ovarian
SF-268 CNS = test system: SF-268 CNS
SK-MEL-5 melanoma = test system: SK-MEL-5 melanoma
SN12C renal = test system: SN12C renal
SNB-75 CNS = test system: SNB-75 CNS
OVCAR-4 ovarian = test system: OVCAR-4 ovarian
MCF7 breast = test system: MCF7 breast
SR leukemia = test system: SR leukemia

Row | Compound | TGI (IGROV1 ovarian) | TGI (LOX IMVI melanoma) | TGI (OVCAR-8 ovarian) | TGI (SF-268 CNS) | TGI (SK-MEL-5 melanoma) | TGI (SN12C renal) | TGI (SNB-75 CNS) | TGI (OVCAR-4 ovarian) | TGI (MCF7 breast) | TGI (SR leukemia)
1 | CCOC(=O)c1c[nH]c(C(=O)OCC)c1-c1cccn1-c1ccccc1 | 51.9 µM | 32.4 µM | 59.6 µM | > 100 µM | 28.4 µM | 69.2 µM | 52.2 µM | – | – | –
2 | CC(C)c1cccc(C(C)C)c1NC(=O)C(=O)Cc1nc2ccc([N+](=O)[O-])cc2[nH]c1=O | > 100 µM | > 100 µM | – | – | – | – | > 100 µM | > 100 µM | – | –
3 | CC1(C)C2CCC3CC(CCC#N)CCC3C21C#N (centres undefined) | > 100 µM | > 100 µM | > 100 µM | > 100 µM | > 100 µM | > 100 µM | – | > 100 µM | > 100 µM | > 100 µM
4 | CCOC1=C2N=C(C(CC)c3ccccc3F)N=C2C(=O)c2ccccc21 (centres undefined) | – | – | > 100 µM | > 100 µM | – | > 100 µM | 47.8 µM | > 100 µM | – | > 100 µM
5 | CC(C)Oc1c(C2(c3ccccc3)SCCCS2)c(=O)c1=O | > 100 µM | > 100 µM | > 100 µM | > 100 µM | > 100 µM | > 100 µM | > 100 µM | > 100 µM | > 100 µM | –
6 | CC1=C(c2nc3ccccc3s2)C(=O)OC1(C)C | – | > 100 µM | > 100 µM | > 100 µM | > 100 µM | > 100 µM | > 100 µM | > 100 µM | – | > 100 µM
7 | COc1ccc(N2C(=O)c3c(c4[nH]c5ccccc5c4c4ccc(C(C)(C)C)cc34)C2=O)cc1 | > 100 µM | > 100 µM | 63.6 µM | 74.4 µM | > 100 µM | > 100 µM | 35.4 µM | 52.9 µM | – | 57.2 µM
8 | Cc1ccc(S(=O)c2cccs2)cc1 (centres undefined) | – | – | > 100 µM | > 100 µM | – | > 100 µM | – | – | > 100 µM | > 100 µM
9 | CO/C(N)=C(\C#N)N=Cc1ccc2ccccc2c1 | > 100 µM | > 100 µM | > 100 µM | > 100 µM | > 100 µM | > 100 µM | > 100 µM | – | – | > 100 µM
10 | CCOC(=O)c1c2ccc(/C=C/c3ccccn3)ccc-2c(C(=O)OCC)c1N | > 100 µM | > 100 µM | – | 0.966 µM | > 100 µM | – | > 100 µM | > 100 µM | – | –
11 | O=C1NC2NC3NC(=O)NC3NC2N1 (centres undefined) | > 100 µM | > 100 µM | > 100 µM | – | > 100 µM | > 100 µM | > 100 µM | – | > 100 µM | > 100 µM
12 | CC(C)(C)OC(=O)NC1CCCC1C(=O)C1=CCCC1 (centres undefined) | > 100 µM | > 100 µM | > 100 µM | > 100 µM | > 100 µM | > 100 µM | > 100 µM | > 100 µM | – | > 100 µM
13 | CC1(C)CCN2C(=O)C34CCCC3CC21S4 (centres undefined) | > 100 µM | > 100 µM | > 100 µM | > 100 µM | > 100 µM | > 100 µM | – | > 100 µM | > 100 µM | > 100 µM
14 | COc1ccc(C2c3cc4c(cc3OC(NNc3ccccc3)C2C)OCO4)cc1 (centres undefined) | > 100 µM | > 100 µM | 63.5 µM | > 100 µM | 99.4 µM | 50.8 µM | > 100 µM | – | 44.7 µM | 16.3 µM
15 | C#CC[C@@H]1C(=O)N(Cc2ccc(OC)cc2)[C@@H](C(C)C)C(=O)N1Cc1ccc(OC)cc1 | > 100 µM | > 100 µM | > 100 µM | > 100 µM | 30.3 µM | > 100 µM | 95 µM | > 100 µM | 54.9 µM | –
16 | CCS(=O)C(=O)N(O)c1ccc(Cl)cc1 (centres undefined) | – | 53.1 µM | – | 55.4 µM | 74.1 µM | 43 µM | > 100 µM | > 100 µM | 50.9 µM | –
17 | COc1ccc2[nH]c3c(c2c1)[C@H](c1ccccc1)C[C@@H]1C(=O)N(c2ccccc2)C(=O)[C@H]31 | > 100 µM | > 100 µM | 17.6 µM | > 100 µM | > 100 µM | 33.3 µM | 40.1 µM | 31 µM | – | 76.4 µM
18 | N#CC(NNC(=O)Cc1ccccc1)c1cccc(O)c1 (centres undefined) | > 100 µM | > 100 µM | > 100 µM | > 100 µM | > 100 µM | > 100 µM | > 100 µM | > 100 µM | – | > 100 µM
19 | O[C@]12C=C(c3nccc4c3[nH]c3ccccc34)[C@@H]3CCN(CCCC/C=C\CC1)C[C@@]31CC3/C=C\CCCCN3[C@H]12 (some centres undefined) | 2.28 µM | 0.84 µM | 1.51 µM | 8.59 µM | 0.34 µM | 2.84 µM | 2.88 µM | > 25.1 µM | 1.83 µM | –
20 | CSc1nc(=S)[nH]c2c1c(C)nn2-c1ccccc1 | – | > 100 µM | – | > 100 µM | 27.8 µM | 52.7 µM | – | 40.9 µM | 46.1 µM | 42.8 µM
21 | Nc1nc(NNc2cccc(F)c2)cc(=O)[nH]1 | > 100 µM | 43.2 µM | > 100 µM | – | > 100 µM | > 100 µM | – | > 100 µM | 89.1 µM | > 100 µM
22 | Cc1cc2ncn(-c3nc4ccccc4nc3C(C#N)S(C)(=O)=O)c2cc1C (centres undefined) | > 100 µM | > 100 µM | > 100 µM | > 100 µM | > 100 µM | > 100 µM | > 100 µM | > 100 µM | – | > 100 µM
23 | CSc1ncnc2c1cnn2Cc1cnnn1COCC(O)CO (centres undefined) | > 100 µM | > 100 µM | > 100 µM | 46.5 µM | > 100 µM | > 100 µM | – | > 100 µM | > 100 µM | > 100 µM
24 | C1CNOCCCONCCCNOCCCONC1 | > 100 µM | > 100 µM | > 100 µM | > 100 µM | > 100 µM | > 100 µM | > 100 µM | > 100 µM | > 100 µM | –
25 | COCC(C)(C)N=CN1Cc2cc3ccccc3nc2C1 | > 100 µM | – | > 100 µM | > 100 µM | > 100 µM | > 100 µM | > 100 µM | > 100 µM | – | > 100 µM
